According to patent EP1770089A1, “Pyranodibenzofuran derivatives with antifungal and antibacterial activity” (priority 2005, dated 2007):
≈ marks a conversion by molar mass, not a printed value. Where two headings read alike, the source gives them in different places.

Tests used:
[1] = tested on: Streptomyces Subspec; assay: Growth inhibition in liquid medium, CFU plating (MIC99); format: cell-based; details: Actinomycetes
Method: (§1) To further assess its specificity, effect of compounds 9 and 16 was also assessed in vitro growth in liquid medium on a whole range of bacteria (Corynebacterium jeikeium, Escherichia coli, Enterococcus faecalis, Klebsiella oxytoca, Nocardia asteroides, Staphylococcus aureus, Pseudomonas aeruginosa and Streptomyces). Compounds were solubilized in dimethylsulfoxide (DMSO) and 100 µl of the appropriate dilution were added to a 5 ml culture with predetermined bacterium inoculum. Quantification of the bacteria was carried out by plating on appropriate agar serial 5-fold dilutions in medium, and colony forming units (CFUs) were ascertained after 24 to 48 hours according to the strains. Table 5. Antibacterial activity of compounds 9 and 16 on other bacteria

[2] = tested on: Corynebacterium jeikeium; assay: as above; format: cell-based; details: Actinomycetes
Method: as §1

[3] = tested on: Enterococcus faecalis; assay: as above; format: cell-based; details: Gram-positive
Method: as §1

[4] = tested on: Nocardia asteroides; assay: as above; format: cell-based; details: Actinomycetes
Method: as §1

[5] = tested on: Pseudomonas aeruginosa; assay: as above; format: cell-based; details: Gram-negative
Method: as §1

[6] = tested on: Staphylococcus aureus; assay: as above; format: cell-based; details: Gram-positive
Method: as §1

[7] = tested on: Escherichia coli; assay: as above; format: cell-based; details: Gram-negative
Method: as §1

[8] = tested on: Klebsiella oxytoca; assay: as above; format: cell-based; details: Gram-negative
Method: as §1

[9] = tested on: Mycobacterium tuberculosis H37Rv; assay: Mycobacterial growth inhibition in liquid culture, CFU plating (MIC99); format: cell-based; details: Mycobacterium tuberculosis, H37RV; for MIC99: 504 h
[10] = tested on: M. bovis BCG (Pasteur); assay: microbe, parasite or virus in culture; format: cell-based; details: Mycobacterium tuberculosis variant bovis BCG
[11] = tested on: murine bone marrow macrophages infected by M. tuberculosis H37Rv; assay: Antibacterial activity on infected bone marrow macrophages (CFU count of lysates); format: cell-based
[12] = tested on: M. tuberculosis H37Ra; assay: Growth inhibition in liquid culture, CFU plating (MIC99); format: cell-based; details: Mycobacterium tuberculosis
[13] = tested on: Pneumococcus pneumoniae; assay: Growth inhibition in liquid medium, CFU plating (MIC99); format: cell-based; details: Gram-positive
[14] = tested on: Candida albicans; assay: In vitro activity (MIC99) against Candida albicans; format: cell-based
Method: The antifungal activity of compounds 5, 9, and 11-22 against Candida albicans was analyzed by the measure of the MIC99 concentration (see Table 1). Table 1. In Vitro Activity against Candida albicans of pyranodibenzofuran derivatives

[15] = tested on: L1210 cells; assay: Cytotoxicity, MTA (Microculture Tetrazolium Assay) test; format: cell-based; details: Mus musculus, cytotoxicity on L1210 cells, read-out: IC50
Method: The cytotoxicity of compounds 5, 9, and 10-21 was determined in L1210 cells using the MTA (Microculture Tetrazolium Assay) test.

[16] = tested on: Mycobacterium tuberculosis H37Rv; parameters: species or system C57BL/6 and BalbC mice; details: mouse, in vivo
[17] = tested on: Macrophages; assay: Cytotoxicity, MTT test; format: cell-based; details: cytotoxicity on macrophages
Method: (§2) The cytotoxicity of compounds 9 and 16 was further assessed in various mammalian cell lines using the MTT test. RAW and A549 cell lines were maintained in RPMI 1640 medium without L-GLU supplemented with 10% Fetal calf serum (FCS), penicillin-streptomycin solution 1 % at 37 °C in air with 5 % CO2. VERO cell lines were maintained in D-MEM medium without L-GLU supplemented with 10% Fetal calf Serum (FCS), penicillin-streptomycin solution 1 % at 37 °C in air with 5 % CO2. Proliferating cells were seeded for 96-well microtitration plates at a density of 5. 10^5 cells/mL which were further incubated for 24 h at 37°C under 5 % CO2 in air before each assay. Various concentrations of solutions of 9 and 16 (10 µl/well) in 1.25 % dimethylsulfoxide (DMSO)) were added and then incubated for 24 hours under the above conditions. At the end of incubation, 20 µl of dimethylthiazolyl diphenyl tetrazolium bromide solution (MTT) (7.5 mg/ml) was then added into each well and further incubated for 4 h at 37°C to allow the formation of formazan. The crystals of formazan were then dissolved with 100 µl of an acidic solution (Sodium dodecyl sulfate (SDS) 10 %, HCl 10 mM). The optical density of each well was measured at 595 nm using a Multiwell plate reader. The values given are the average means of six replicates. The 50 % inhibition concentration was determined by curve fitting.

[18] = tested on: VERO cells; assay: Cytotoxicity, MTT test; format: cell-based; details: for IC50: cytotoxicity on VERO cells, MTT, 24 hours
Method: as §2

[19] = tested on: M. microti (MYC-942272); assay: Growth inhibition in liquid culture, CFU plating (MIC99); format: cell-based
[20] = tested on: Mycobacterium smegmatis mc^2155; assay: Mycobacterial growth inhibition in liquid culture (MIC99); format: cell-based; details: Mycolicibacterium smegmatis, MC2155|MC^2155, 48 h; mc2155; two-day's growth at 37°C; 99% decrease vs DMSO control; read-out: MIC99 on M. smegmatis

Compound: CC1(C)C=Cc2c(ccc3oc4ccccc4c23)O1 [Compound 9, 3,3-dimethyl-3H-benzofuro[3,2-f][1]benzopyran]
- MIC99 [1]: > 500 µg/mL
- MIC99 [2]: > 150 µg/mL
- MIC99 [3]: > 500 µg/mL
- MIC99 [4]: 12.8 µg/mL (≈ 51.1 µM)
- MIC99 [5]: > 500 µg/mL
- MIC99 [6]: > 100 µg/mL
- MIC99 [7]: > 600 µg/mL
- MIC99 [8]: > 600 µg/mL
- MIC99 ([9]; H37Rv, three weeks growth in 7H9, CFU on 7H11, NI = no inhibition at 1 mg/mL, read-out: MIC99 on M. tuberculosis): 5 µg/mL (≈ 20 µM)
- MIC99 ([9]; M. tuberculosis H37Rv, three week growth in 7H9/OADC): < 5 µg/mL
- MIC ([9]; summary statement, read-out: MIC measured on M. tuberculosis): < 6.25 µg/mL
- MIC99 [10]: 10 µg/mL (≈ 40 µM)
- CFU ([11]; 5 µg/mL, 24 hours treatment, untreated control 4000 ± 1414): 3000 ± 816
- CFU ([11]; 5 µg/mL, 48 hours treatment, untreated control 17500 ± 12583): 2875 ± 250
- reduction of bacterial load ([11]; 10µg/mL at 24 hours): 60%
- CFU ([11]; 10 µg/mL, 24 hours treatment, untreated control 4000 ± 1414): 1500 ± 577
- CFU ([11]; 10 µg/mL, 48 hours treatment, untreated control 17500 ± 12583): 10000 ± 7360
- CFU ([11]; 50 µg/mL, 24 hours treatment, untreated control 4000 ± 1414): 1750 ± 1500
- CFU ([11]; 50 µg/mL, 48 hours treatment, untreated control 17500 ± 12583): 3800 ± 497
- MIC99 [12]: 10 µg/mL (≈ 40 µM)
- MIC99 [13]: > 500 µg/mL
- MIC99 ([14]; Candida albicans, > 99 % inhibition of growth, read-out: MIC99 C. albicans): > 600 µg/mL
- MIC99 ([14]; Fungus, Candida albicans (table of other bacteria), read-out: MIC99): > 600 µg/mL
- IC50 [15]: > 14 µg/mL
- bacteria detected at 30 days post infection (bacterial load, CFU) [16]: no bacteria was detected in 2 out of 3 mice
- IC50 ([17]; Macrophage, 24 h, read-out: IC50): > 50 µg/mL
- IC50 ([17]; 24 hours): 80 µg/mL (≈ 320 µM)
- IC50 ([18]; Chlorocebus sabaeus, Vero, 24 h, read-out: IC50): > 50 µg/mL
- IC50 [18]: 80 µg/mL (≈ 320 µM)
- Selectivity Index ([18]; summary statement, cell type not specified): above 10
- MIC99 [19]: 1 µg/mL (≈ 4 µM)
- MIC99 [20]: 5 µg/mL (≈ 20 µM)
